Literature values in patent publication US20200339511A1, “Substituted indoline derivatives as dengue viral replication inhibitors” (priority 2016, published 2020).

System: DENV-2
Settings: analogous DENV-2 antiviral assay, reported activity; cited from earlier work

Compound | EC50 [nM]
COc1cccc(NC(C(=O)N2CCc3ccccc32)c2ccccc2)c1 (centres unmarked) [(56) of WO-2013/045516] | 450
CNC(=O)c1cccc(NC(C(=O)c2c[nH]c3ccccc23)c2ccccc2)c1 (centres unmarked) [(170) of WO-2013/045516] | 440
